Data set [1] relates to Rattus norvegicus. Nature of the data set: In vivo inhibition of riboflavin activity in weanling Wistar rat assessed as change in body weight at 2 mg/kg/day administered by stomach tube prior to feeding with riboflavin-deficient diet measured for 28 days (reference value: 3 +/- 1 g). The data set is classed as functional.
Data set [2] relates to Rattus norvegicus. Nature of the data set: Induction of riboflavin-like activity in weanling Wistar rat assessed as change in body weight at 2 mg/kg/day administered by stomach tube prior to feeding with riboflavin-deficient diet measured for 28 days in presence of 20 ug/day riboflavin (reference value: 3 +/- 1 g). The data set is classed as functional.
Data set [3] can be described thus: Toxicity in weanling Wistar rat assessed as survival at 2 mg/rat/day administered by stomach tube prior to feeding with riboflavin-deficient diet measured for 28 days relative to control. The following applies: in vivo, oral.
Data set [4] relates to Rattus norvegicus. Nature of the data set: Induction of riboflavin-like activity in weanling Wistar rat assessed as change in body weight at 2 mg/kg/day administered by stomach tube prior to feeding with riboflavin-deficient diet measured for 28 days in presence of 40 ug/day riboflavin (reference value: 3 +/- 1 g). The data set is classed as functional.
In data set [5] the test system is Rattus norvegicus. The data set is described as follows: Induction of riboflavin-like activity in weanling Wistar rat assessed as change in body weight at 2 mg/kg/day administered by stomach tube prior to feeding with riboflavin-deficient diet measured for 28 days in presence of 60 ug/day riboflavin (reference value: 3 +/- 1 g). The data set is classed as functional.

In data set [6] the test system is Rattus norvegicus. The data set is described as follows: In vivo inhibition of riboflavin activity in weanling Wistar rat assessed as decrease in body weight at 2 mg/kg/day administered by stomach tube prior to feeding with riboflavin-deficient diet measured for >= 14 days (reference value: 3 +/- 1 g). The data set is classed as functional.

Results on six compounds are retold here after ChEMBL document CHEMBL3244166, “Syntheses and biological activities of basically substituted isoalloxazines” (J Med Chem, 1978).

Consider `Cc1cc2nc3c(=O)[nH]c(=O)nc-3n(CCN(CCO)CCO)c2cc1C`, for which the Activity was -10 g in data set [1] and 35 g in data set [2]. The survival at 672 h in data set [3] was 40%.

Take `O=c1nc2n(CCN(CCO)CCO)c3cc(Cl)c(Cl)cc3nc-2c(=O)[nH]1`: the Activity in data set [1] is recorded as 6 g. Moreover, the survival at 672 h in data set [3] worked out at 100%.

Regarding `Cc1cc2c(cc1Cl)nc1c(=O)[nH]c(=O)nc-1n2CCN(CCO)CCO.Cl`, the Activity in data set [1] was -8 g. Also, the survival at 672 h in data set [3] amounted to 100%.

Regarding `Cc1cc2nc3c(=O)[nH]c(=O)nc-3n(CCN(CCO)CCO)c2cc1Cl.Cl`, the Activity in data set [1] was 0 g. Besides, the survival at 672 h in data set [3] is 100%.

Consider `CCc1cc2nc3c(=O)[nH]c(=O)nc-3n(CCN(CCO)CCO)c2cc1C.Cl`, for which the Activity in data set [1] is given as -25 g; in data set [2], -2 g; in data set [4], 21 g. In addition, the survival at 672 h in data set [3] is 60%.

Consider `CCc1cc2nc3c(=O)[nH]c(=O)nc-3n(CCN(CCO)CCO)c2cc1CC.Cl`, for which the Activity is given as 33 g in data set [5], -9 g in data set [2], -26 g in data set [6] and 7 g in data set [4]. The survival at 672 h in data set [3] is 25%.
